Experimental data taken from PubChem BioAssay AID212 (DTP/NCI, 2004).
Where “and” joins values, the source holds several entries; their conditions need not be identical. Equal values may be shown once. Records with an inconclusive call do not appear.

System: BDF1 mice, colon carcinoma 38 sc, T/C %
Test: NCI In Vivo Anticancer Drug Screen. Data for tumor model Colon Carcinoma 38 (subcutaneous) in B6D2F1 (BDF1) mice
Conditions: endpoint: median tumor weight (est.), higher = larger tumour
In short: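 Compound antitumor activity was assessed in mice carrying transplantable tumors. Survival or tumor size was recorded, and each value is the treated-group measurement divided by that of the vehicle-treated control group.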

[1] = dose: 50.0 mg/kg/injection, schedule: Q07DX002 (ip), vehicle: Klucel (hydroxypropylcellulose) (HPC)
[2] = dose: 100.0 mg/kg/injection, schedule: Q07DX002 (ip), vehicle: Klucel (hydroxypropylcellulose) (HPC)
[3] = dose: 12.5 mg/kg/injection, schedule: Q07DX002 (ip), vehicle: saline with Tween-80
[4] = dose: 200.0 mg/kg/injection, schedule: Q07DX002 (ip), vehicle: saline with Tween-80
[5] = dose: 50.0 mg/kg/injection, schedule: Q07DX002 (ip), vehicle: saline with Tween-80
[6] = dose: 6.25 mg/kg/injection, schedule: Q07DX002 (ip), vehicle: Klucel (hydroxypropylcellulose) (HPC)
[7] = dose: 12.5 mg/kg/injection, schedule: Q07DX002 (ip), vehicle: Klucel (hydroxypropylcellulose) (HPC)
[8] = dose: 25.0 mg/kg/injection, schedule: Q07DX002 (ip), vehicle: Klucel (hydroxypropylcellulose) (HPC)
[9] = dose: 25.0 mg/kg/injection, schedule: Q07DX002 (ip), vehicle: saline with Tween-80
[10] = dose: 100.0 mg/kg/injection, schedule: Q07DX002 (ip), vehicle: saline with Tween-80

O=C(O)Cc1cccc2c(=O)cc(-c3ccccc3)oc12
T/C (dose: 47.3 mg/kg/injection, schedule: Q03HX004 (ip), vehicle: clinical formulation): 124 % of control
T/C [1]: 79 % of control
T/C (dose: 50.0 mg/kg/injection, schedule: Q07DX002 (ip), vehicle: sodium bicarbonate): 46 % of control
T/C (dose: 63.0 mg/kg/injection, schedule: Q03HX004 (ip), vehicle: clinical formulation): 89 % of control
T/C (dose: 63.0 mg/kg/injection, schedule: Q07DX002 (ip), vehicle: sodium bicarbonate): 70 % of control
T/C (dose: 63.0 mg/kg/injection, schedule: Q07DX002 (iv), vehicle: sodium bicarbonate): 120 % of control
T/C (dose: 84.0 mg/kg/injection, schedule: Q03HX004 (ip), vehicle: clinical formulation): 19 % of control
T/C (dose: 84.0 mg/kg/injection, schedule: Q06HX002 (ip), vehicle: clinical formulation): 80 % of control
T/C (dose: 84.0 mg/kg/injection, schedule: Q07DX002 (ip), vehicle: saline): 103 % of control
T/C (dose: 84.0 mg/kg/injection, schedule: Q07DX002 (ip), vehicle: sodium bicarbonate): 46 % of control
T/C (dose: 84.0 mg/kg/injection, schedule: Q07DX002 (iv), vehicle: sodium bicarbonate): 122 % of control
T/C [2]: 4 % of control
T/C (dose: 100.0 mg/kg/injection, schedule: Q07DX002 (ip), vehicle: sodium bicarbonate): 73 % of control
T/C (dose: 112.0 mg/kg/injection, schedule: Q01DX001 (ip), vehicle: clinical formulation): 72 % of control
T/C (dose: 112.0 mg/kg/injection, schedule: Q06HX002 (ip), vehicle: clinical formulation): 29 % of control
T/C (dose: 112.0 mg/kg/injection, schedule: Q07DX002 (ip), vehicle: clinical formulation): 44 % of control
T/C (dose: 112.0 mg/kg/injection, schedule: Q07DX002 (ip), vehicle: saline): 13 % of control
T/C (dose: 112.0 mg/kg/injection, schedule: Q07DX002 (ip), vehicle: sodium bicarbonate): 90 % of control
T/C (dose: 112.0 mg/kg/injection, schedule: Q07DX002 (iv), vehicle: sodium bicarbonate): 100 % of control
T/C (dose: 150.0 mg/kg/injection, schedule: Q01DX001 (ip), vehicle: clinical formulation): 22 % of control
T/C (dose: 150.0 mg/kg/injection, schedule: Q07DX002 (ip), vehicle: saline): 2 % of control
T/C (dose: 150.0 mg/kg/injection, schedule: Q07DX002 (ip), vehicle: sodium bicarbonate): 67 % of control
T/C (dose: 150.0 mg/kg/injection, schedule: Q07DX002 (iv), vehicle: sodium bicarbonate): 15 % of control
T/C (dose: 200.0 mg/kg/injection, schedule: Q07DX002 (ip), vehicle: sodium bicarbonate): 42 % of control
T/C (dose: 267.0 mg/kg/injection, schedule: Q07DX002 (ip), vehicle: saline): 1 % of control

C/C=C(\C)c1cc(=O)c2c(C)cc3c(c2o1)C(=O)c1c(O)c(C2CC(C)(N(C)C)C(OC(C)=O)C(C)O2)cc(C2CC(N(C)C)C(O)C(C)O2)c1C3=O (stereo not drawn)
T/C (dose: 0.31 mg/kg/injection, schedule: Q07DX002 (ip), vehicle: saline): 78 % of control
T/C (dose: 0.31 mg/kg/injection, schedule: Q07DX002 (ip), vehicle: suspension in saline): 84 % of control
T/C (dose: 0.62 mg/kg/injection, schedule: Q07DX002 (ip), vehicle: saline): 75 % of control and 92 % of control
T/C (dose: 0.62 mg/kg/injection, schedule: Q07DX002 (ip), vehicle: suspension in saline): 97 % of control
T/C (dose: 1.25 mg/kg/injection, schedule: Q07DX002 (ip), vehicle: saline): 97 % of control
T/C (dose: 1.25 mg/kg/injection, schedule: Q07DX002 (ip), vehicle: suspension in saline): 81 % of control
T/C (dose: 2.5 mg/kg/injection, schedule: Q07DX002 (ip), vehicle: saline): 116 % of control and 105 % of control
T/C (dose: 2.5 mg/kg/injection, schedule: Q07DX002 (ip), vehicle: suspension in saline): 90 % of control
T/C (dose: 5.0 mg/kg/injection, schedule: Q07DX002 (ip), vehicle: saline): 86 % of control
T/C (dose: 5.0 mg/kg/injection, schedule: Q07DX002 (ip), vehicle: suspension in saline): 97 % of control
T/C (dose: 10.0 mg/kg/injection, schedule: Q07DX002 (ip), vehicle: saline): 97 % of control
T/C (dose: 10.0 mg/kg/injection, schedule: Q07DX002 (ip), vehicle: suspension in saline): 120 % of control

CCC(c1ccc(OC(=O)Cc2ccc(N(CCCl)CCCl)cc2)cc1)C(CC)c1ccc(OC(=O)Cc2ccc(N(CCCl)CCCl)cc2)cc1 (stereo not drawn)
T/C (dose: 9.38 mg/kg/injection, schedule: Q07DX002 (ip), vehicle: saline with Tween-80): 120 % of control
T/C (dose: 18.7 mg/kg/injection, schedule: Q07DX002 (ip), vehicle: saline with Tween-80): 92 % of control
T/C (dose: 37.5 mg/kg/injection, schedule: Q07DX002 (ip), vehicle: saline with Tween-80): 33 % of control
T/C (dose: 75.0 mg/kg/injection, schedule: Q07DX002 (ip), vehicle: saline with Tween-80): 46 % of control
T/C (dose: 300.0 mg/kg/injection, schedule: Q07DX002 (ip), vehicle: saline with Tween-80): 51 % of control and 61 % of control
T/C (dose: 600.0 mg/kg/injection, schedule: Q07DX002 (ip), vehicle: saline with Tween-80): 51 % of control and 61 % of control

CCN(CC)CCNc1ccc(CO)c2sc3ccccc3c(=O)c12
T/C (dose: 6.25 mg/kg/injection, schedule: Q07DX003 (ip), vehicle: clinical formulation): 120 % of control
T/C (dose: 6.25 mg/kg/injection, schedule: Q07DX003 (ip), vehicle: water): 90 % of control
T/C (dose: 12.5 mg/kg/injection, schedule: Q07DX003 (ip), vehicle: clinical formulation): 116 % of control
T/C (dose: 12.5 mg/kg/injection, schedule: Q07DX003 (ip), vehicle: water): 103 % of control
T/C (dose: 25.0 mg/kg/injection, schedule: Q07DX003 (ip), vehicle: clinical formulation): 77 % of control
T/C (dose: 25.0 mg/kg/injection, schedule: Q07DX003 (ip), vehicle: water): 114 % of control
T/C (dose: 50.0 mg/kg/injection, schedule: Q07DX003 (ip), vehicle: clinical formulation): 63 % of control
T/C (dose: 50.0 mg/kg/injection, schedule: Q07DX003 (ip), vehicle: water): 30 % of control
T/C (dose: 100.0 mg/kg/injection, schedule: Q07DX003 (ip), vehicle: clinical formulation): 14 % of control
T/C (dose: 100.0 mg/kg/injection, schedule: Q07DX003 (ip), vehicle: water): 11 % of control

C=CCNc1nc2c(s1)CCc1cc(OC)c(OC)cc1-2
T/C [3]: 94 % of control
T/C [4]: 109 % of control and 111 % of control
T/C (dose: 400.0 mg/kg/injection, schedule: Q07DX002 (ip), vehicle: saline with Tween-80): 73 % of control

CSc1ccc2c(c1)C(N1CCN(C)CC1)Cc1ccccc1S2 (stereo not drawn)
T/C [5]: 68 % of control and 72 % of control

C[C@H]1C/C=C/[C@H]2[C@@H]3O[C@]3(C)[C@@H](C)[C@H]3[C@H](Cc4ccccc4)NC(=O)[C@]32OC(=O)O/C=C/[C@@](C)(O)C1=O
T/C [6]: 79 % of control
T/C [7]: 88 % of control

N#C[Se-].c1ccc([Te+](c2ccccc2)c2ccccc2)cc1
T/C (dose: 3.12 mg/kg/injection, schedule: Q07DX002 (ip), vehicle: Klucel (hydroxypropylcellulose) (HPC)): 181 % of control
T/C [6]: 80 % of control
T/C [7]: 65 % of control
T/C [8]: 186 % of control

N#Cc1c(N)[nH]c2ccc(Sc3ccccc3)cc12
T/C [3]: 78 % of control
T/C [9]: 97 % of control
T/C [5]: 63 % of control
T/C [10]: 73 % of control

CN=C(N)N/N=C(\C)c1ccc2c(c1)Cc1ccccc1-2
T/C [3]: 95 % of control and 98 % of control
T/C [9]: 63 % of control and 85 % of control
T/C [5]: 83 % of control and 86 % of control
T/C [10]: 81 % of control and 93 % of control

CC(C#N)(C#N)N=Nc1ccc(Cl)cc1Cl
T/C [9]: 86 % of control and 101 % of control
T/C [5]: 50 % of control and 69 % of control
T/C [10]: 66 % of control and 73 % of control
T/C [4]: 58 % of control and 64 % of control
T/C (dose: 800.0 mg/kg/injection, schedule: Q07DX002 (ip), vehicle: saline with Tween-80): 63 % of control and 78 % of control

NC(=O)Nc1cc(NC(N)=O)cc(N(CCCl)CCCl)c1
T/C (dose: 10.0 mg/kg/injection, schedule: Q07DX002 (ip), vehicle: Klucel (hydroxypropylcellulose) (HPC)): 89 % of control
T/C (dose: 20.0 mg/kg/injection, schedule: Q07DX002 (ip), vehicle: Klucel (hydroxypropylcellulose) (HPC)): 68 % of control
T/C (dose: 40.0 mg/kg/injection, schedule: Q07DX002 (ip), vehicle: Klucel (hydroxypropylcellulose) (HPC)): 96 % of control

CCN(C)N=Nc1ccc(C(N)=O)cc1
T/C [7]: 82 % of control and 84 % of control
T/C [8]: 82 % of control and 87 % of control
T/C [1]: 56 % of control and 63 % of control and 76 % of control
T/C [2]: 61 % of control and 77 % of control and 78 % of control
